The record followed here is patent US20230135152A1 (ACURASTEM INCORPORATED, priority 2020, published 2023).

Molecules are shown by their SMILES.

T1 sequence (Q9Y2I7 whole entry): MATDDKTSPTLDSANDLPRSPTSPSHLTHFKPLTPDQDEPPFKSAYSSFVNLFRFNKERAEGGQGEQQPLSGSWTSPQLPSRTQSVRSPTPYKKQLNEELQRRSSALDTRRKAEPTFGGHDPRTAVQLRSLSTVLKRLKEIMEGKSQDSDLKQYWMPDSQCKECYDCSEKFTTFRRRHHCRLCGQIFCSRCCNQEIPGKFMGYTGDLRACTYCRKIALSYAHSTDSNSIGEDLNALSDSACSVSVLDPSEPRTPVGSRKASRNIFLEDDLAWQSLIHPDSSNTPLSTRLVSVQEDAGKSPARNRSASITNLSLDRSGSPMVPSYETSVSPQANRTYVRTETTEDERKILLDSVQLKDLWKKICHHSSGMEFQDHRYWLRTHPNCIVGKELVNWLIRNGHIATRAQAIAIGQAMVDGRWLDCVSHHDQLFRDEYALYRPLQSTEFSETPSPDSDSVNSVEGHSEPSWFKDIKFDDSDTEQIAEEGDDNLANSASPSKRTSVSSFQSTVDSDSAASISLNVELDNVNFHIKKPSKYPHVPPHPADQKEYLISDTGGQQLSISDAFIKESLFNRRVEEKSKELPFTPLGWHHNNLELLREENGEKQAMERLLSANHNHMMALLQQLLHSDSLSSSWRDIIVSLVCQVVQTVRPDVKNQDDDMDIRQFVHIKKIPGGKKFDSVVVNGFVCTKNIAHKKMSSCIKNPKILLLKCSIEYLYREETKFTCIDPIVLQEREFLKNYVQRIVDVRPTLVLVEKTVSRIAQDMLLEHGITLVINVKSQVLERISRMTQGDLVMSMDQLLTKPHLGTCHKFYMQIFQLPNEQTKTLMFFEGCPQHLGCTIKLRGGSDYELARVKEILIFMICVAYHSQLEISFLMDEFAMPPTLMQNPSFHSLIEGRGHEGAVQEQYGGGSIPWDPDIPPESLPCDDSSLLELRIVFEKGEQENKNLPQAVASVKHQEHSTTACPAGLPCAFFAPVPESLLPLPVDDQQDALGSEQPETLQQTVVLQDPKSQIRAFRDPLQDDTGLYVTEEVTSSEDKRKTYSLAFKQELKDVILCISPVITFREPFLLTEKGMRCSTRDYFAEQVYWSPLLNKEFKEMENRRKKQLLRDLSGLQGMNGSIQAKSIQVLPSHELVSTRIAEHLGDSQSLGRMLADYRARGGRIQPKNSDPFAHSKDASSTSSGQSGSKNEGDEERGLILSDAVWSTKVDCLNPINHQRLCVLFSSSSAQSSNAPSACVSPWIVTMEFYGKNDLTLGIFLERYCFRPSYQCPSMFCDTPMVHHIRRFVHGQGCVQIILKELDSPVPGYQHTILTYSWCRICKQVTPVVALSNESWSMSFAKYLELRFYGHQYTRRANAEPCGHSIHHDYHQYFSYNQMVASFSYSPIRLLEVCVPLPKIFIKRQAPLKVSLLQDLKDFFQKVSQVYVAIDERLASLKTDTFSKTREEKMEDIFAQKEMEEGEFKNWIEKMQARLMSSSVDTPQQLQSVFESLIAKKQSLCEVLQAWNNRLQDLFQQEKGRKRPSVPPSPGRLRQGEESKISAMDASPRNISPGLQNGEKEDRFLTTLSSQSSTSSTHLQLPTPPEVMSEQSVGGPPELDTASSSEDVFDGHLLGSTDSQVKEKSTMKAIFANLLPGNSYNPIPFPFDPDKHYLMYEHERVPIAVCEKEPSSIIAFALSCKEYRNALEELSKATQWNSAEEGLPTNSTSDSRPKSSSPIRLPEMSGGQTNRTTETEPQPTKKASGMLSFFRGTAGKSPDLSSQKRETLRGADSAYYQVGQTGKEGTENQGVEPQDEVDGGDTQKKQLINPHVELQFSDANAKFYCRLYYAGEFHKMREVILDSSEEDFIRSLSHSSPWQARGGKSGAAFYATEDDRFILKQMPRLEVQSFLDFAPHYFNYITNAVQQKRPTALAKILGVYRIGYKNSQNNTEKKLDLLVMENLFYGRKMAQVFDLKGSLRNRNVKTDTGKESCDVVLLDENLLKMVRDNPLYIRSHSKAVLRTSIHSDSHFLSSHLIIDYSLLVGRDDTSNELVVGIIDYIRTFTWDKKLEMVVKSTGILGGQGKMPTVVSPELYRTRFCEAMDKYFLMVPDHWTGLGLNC

The target of the first test is T1, PIKFYVE (Homo sapiens, UniProt Q9Y2I7). Put plainly: PIKFYVE assay (luciferase ADP-Glo kinase assay, Promega). Format: biochemical. To be noted: Table 2. The method, then:
The activity of Compounds 1-20 was measured using a PIKFYVE assay (luciferase ADP-Glo kinase assay available from Promega Corp. of Madison, Wis.).
The activity of Compounds 39-90 was also measured using a PIKFYVE assay (luciferase ADP-Glo kinase assay available from Promega Corp. of Madison, Wis.).
The activity of Compounds 93-347 was also measured using a PIKFYVE assay (luciferase ADP-Glo kinase assay available from Promega Corp. of Madison, Wis.).
Turning to `Cc1cn(-c2cc(N3CCOCC3)nc(OCCc3cnn(C)c3)n2)nc1-c1ccccc1` [Compound 63, 4-(2-(2-(1-methyl-1H-pyrazol-4-yl)ethoxy)-6-(4-methyl-3-phenyl-1H-pyrazol-1-yl)pyrimidin-4-yl)morpholine], the 50% inhibitory concentration (IC50) lay within 101 to 1000 nM. For the molecule `COCC(O)c1nc(N2CCOCC2)cc(-n2ccc(-c3cccc(C)c3)n2)n1` (stereo not shown) [Compound 49], the concentration for half-maximal inhibition (IC50) lay in the range of 5 to 100 nM. Take `Cc1cccc(-c2ccn(-c3cc(N4CCOCC4)nc(OCC4(C)COC4)n3)n2)c1` [Compound 67]: the IC50 is less than 5 nM. Same read-out and setting: then `Fc1ccc(-c2cnn(-c3cc(N4CC[C@H]5OCC[C@H]54)nc(OCCc4ccccn4)n3)c2)cc1` [Compound 41], with 1000 to 10000 nM; and `COC(CO)c1nc(N2CCOCC2)cc(-n2ccc(-c3cccc(C)c3)n2)n1` (stereo not shown) [Compound 50], with less than 5 nM; and `Cc1cccc(-c2ccn(-c3cc(N4CCOCC4)nc(NC(=O)Cc4cnn(C)c4)n3)n2)c1` [Compound 65], with less than 5 nM.

As for `OCc1nc(N2CCOCC2)cc(-n2ccc(-c3ccccc3)n2)n1` [Compound 84], the half-maximal inhibitory concentration (IC50) fell in the range of 5 to 100 nM.

The test is the same for the next values; noted with them: Table 3.
`Cc1cccc(-c2ccn(-c3cc(N4CCOCC4)nc(OCC(=O)c4ccccc4)n3)n2)c1` [Compound 169] registered a half-maximal inhibitory concentration (IC50) of 10 to 100 nM. The molecule `CO[C@@H](CO)c1nc(N2CCOCC2)cc(-n2nc(-c3csc4ccccc34)cc2C)n1` [Compound 279, (R)-2-(4-(3-(benzo[b]thiophen-3-yl)-5-methyl-1H-pyrazol-1-yl)-6-morpholinopyrimidin-2-yl)-2-methoxyethan-1-ol] registered a concentration for half-maximal inhibition (IC50) of 3 to 10 nM. On the same count and under the same terms, the value for `CN(c1nc(OCCc2cnn(C)c2)cc(N2CCOCC2)n1)c1ncc2ccccc2n1` [Compound 252, N-methyl-N-(4-(2-(1-methyl-1H-pyrazol-4-yl)ethoxy)-6-morpholinopyrimidin-2-yl)quinazolin-2-amine] was more than 5000 nM.

Molecule `CN(C)Cc1cc(-c2ccccc2)nn1-c1cc(N2CCOCC2)nc(OCC2(C)COC2)n1` [Compound 207, N,N-dimethyl-1-(1-(2-((3-methyloxetan-3-yl)methoxy)-6-morpholinopyrimidin-4-yl)-3-phenyl-1H-pyrazol-5-yl)methanamine] gave an IC50 of 10 to 100 nM. Still for that read-out and setting: then `CO[C@H](CO)c1nc(N2CCOCC2)cc(-n2ccc(-c3cccc(C)c3C)n2)n1` [Compound 264, (S)-2-(4-(3-(2,3-dimethylphenyl)-1H-pyrazol-1-yl)-6-morpholinopyrimidin-2-yl)-2-methoxyethan-1-ol], with 100 to 5000 nM; and `Cc1cccc(-c2cn(C)n(-c3cc(N4CCOCC4)nc(OCCc4cnn(C)c4)n3)c2=O)c1` [Compound 247, 1-methyl-2-(2-(2-(1-methyl-1H-pyrazol-4-yl)ethoxy)-6-morpholinopyrimidin-4-yl)-4-(m-tolyl)-1,2-dihydro-3H-pyrazol-3-one], with 100 to 5000 nM.

On to `Cn1cc(CCOc2nc(N3CCOCC3)cc(-n3ccc(C4=CC(C)(C)CC=C4)n3)n2)cn1` [Compound 296, 4-(6-(3-(3,3-dimethylcyclohexa-1,5-dien-1-yl)-1H-pyrazol-1-yl)-2-(2-(1-methyl-1H-pyrazol-4-yl)ethoxy)pyrimidin-4-yl)morpholine], for which the IC50 was in the range of 100 to 5000 nM.

For `Cn1cc(CCOc2nc(N3CCOCC3)cc(-n3ccc(C4CCCCC4)n3)n2)cn1` [Compound 196, 4-(6-(3-cyclohexyl-1H-pyrazol-1-yl)-2-(2-(1-methyl-1H-pyrazol-4-yl)ethoxy)pyrimidin-4-yl)morpholine], the IC50 was more than 5000 nM. `Cn1cc(CCOc2nc(Oc3cc(-c4ccccc4)n(C)n3)cc(N3CCOCC3)n2)cn1` [Compound 213, 4-(2-(2-(1-methyl-1H-pyrazol-4-yl)ethoxy)-6-((1-methyl-5-phenyl-1H-pyrazol-3-yl)oxy)pyrimidin-4-yl)morpholine]: the IC50 was 100 to 5000 nM. The same measure, in the same setting: then `CO[C@H](CO)c1nc(N2CCOCC2)cc(-n2nc(-c3c[nH]c4ccncc34)cc2C)n1` [Compound 288, (S)-2-methoxy-2-(4-(5-methyl-3-(1H-pyrrolo[3,2-c]pyridin-3-yl)-1H-pyrazol-1-yl)-6-morpholinopyrimidin-2-yl)ethan-1-ol], with 100 to 5000 nM; and `CO[C@@H](CO)c1nc(N2CCOCC2)cc(-n2nc(-c3ccccc3)cc2C2CC2)n1` (single isomer, unassigned) [Compound 257], with 10 to 100 nM. Still for that read-out and setting: the value for `CN(C)C(=O)c1cc(-c2ccccc2)nn1-c1cc(N2CCOCC2)nc(OCCc2cnn(C)c2)n1` [Compound 222, N,N-dimethyl-1-(2-(2-(1-methyl-1H-pyrazol-4-yl)ethoxy)-6-morpholinopyrimidin-4-yl)-3-phenyl-1H-pyrazole-5-carboxamide] was 100 to 5000 nM. Turning to `CO[C@@H](CO)c1nc(N2CCOCC2)cc(-n2ccc(-c3cc(C)ccc3C)n2)n1` (single isomer, unassigned) [Compound 342], the half-inhibitory concentration (IC50) lay in the range of 10 to 100 nM. The same measure, in the same setting: the value for `CO[C@@H](CO)c1nc(N2CCOCC2)cc(-n2ccc(-c3cccc(C)c3C)n2)n1` [Compound 265, (R)-2-(4-(3-(2,3-dimethylphenyl)-1H-pyrazol-1-yl)-6-morpholinopyrimidin-2-yl)-2-methoxyethan-1-ol] was 100 to 5000 nM; that for `CO[C@H](CO)c1nc(N2CCOCC2)cc(-n2nc(-c3c[nH]c4cccnc34)cc2C)n1` [Compound 290, (S)-2-methoxy-2-(4-(5-methyl-3-(1H-pyrrolo[3,2-b]pyridin-3-yl)-1H-pyrazol-1-yl)-6-morpholinopyrimidin-2-yl)ethan-1-ol] was 100 to 5000 nM; that for `CO[C@H](CO)c1nc(N2CCOCC2)cc(-n2ccc(-c3cccc4c3OCO4)n2)n1` [Compound 266, (S)-2-(4-(3-(benzo[d][1,3]dioxol-4-yl)-1H-pyrazol-1-yl)-6-morpholinopyrimidin-2-yl)-2-methoxyethan-1-ol] was 100 to 5000 nM. With `Cc1cccc(CC(=O)Nc2cc(N3CCOCC3)nc(OCCc3cnn(C)c3)n2)c1` [Compound 249, N-(2-(2-(1-methyl-1H-pyrazol-4-yl)ethoxy)-6-morpholinopyrimidin-4-yl)-2-(m-tolyl)acetamide], the IC50 was in the range of 100 to 5000 nM. On the same count and under the same terms, the value for `CO[C@H](CO)c1nc(N2CCOCC2)cc(-n2ccc(-c3cc(C)ccc3C)n2)n1` (single isomer, unassigned) [Compound 343] was 10 to 100 nM; that for `Cc1cccc(-c2ccn(-c3cc(N4CC[C@H]5OCC[C@H]54)nc(C(O)CO)n3)n2)c1` (stereo partly drawn) [Compound 151, 1-(4-((3aR,6aR)-hexahydro-4H-furo[3,2-b]pyrrol-4-yl)-6-(3-(m-tolyl)-1H-pyrazol-1-yl)pyrimidin-2-yl)ethane-1,2-diol] was 10 to 100 nM; that for `Cc1cccc(-c2ccn(-c3cc(N4CCOCC4)c4c(ccn4C)n3)n2)c1` [Compound 333, 4-(1-methyl-5-(3-(m-tolyl)-1H-pyrazol-1-yl)-1H-pyrrolo[3,2-b]pyridin-7-yl)morpholine] was 100 to 5000 nM. Molecule `CO[C@H](CO)c1nc(N2CCOCC2)cc(-n2nc(-c3cnc4ccccn34)cc2C)n1` [Compound 280, (S)-2-(4-(3-(imidazo[1,2-a]pyridin-3-yl)-5-methyl-1H-pyrazol-1-yl)-6-morpholinopyrimidin-2-yl)-2-methoxyethan-1-ol] displayed a half-inhibitory concentration (IC50) of 100 to 5000 nM. The molecule `CO[C@@H](CO)c1nc(N2CCOCC2)cc(-n2ccc(-c3cccc4c3COC4)n2)n1` [Compound 271, (R)-2-(4-(3-(1,3-dihydroisobenzofuran-4-yl)-1H-pyrazol-1-yl)-6-morpholinopyrimidin-2-yl)-2-methoxyethan-1-ol] gave an IC50 of 100 to 5000 nM. The molecule `Cc1cccc(-c2ccn(-c3cc(N4CCOCC4)nc(OCCc4ccccn4)n3)n2)c1` [Compound 92, 4-(2-(2-(pyridin-2-yl)ethoxy)-6-(3-(m-tolyl)-1H-pyrazol-1-yl)pyrimidin-4-yl)morpholine] displayed an IC50 of 3 to 10 nM. `Cc1cccc(CC(=O)Nc2nc(OCCc3cnn(C)c3)cc(N3CCOCC3)n2)c1` [Compound 248, N-(4-(2-(1-methyl-1H-pyrazol-4-yl)ethoxy)-6-morpholinopyrimidin-2-yl)-2-(m-tolyl)acetamide] registered an IC50 of more than 5000 nM. Molecule `CO[C@H](CO)c1nc(N2CCOCC2)cc(-n2ccc(-c3cnc4ccccn34)n2)n1` [Compound 282, (S)-2-(4-(3-(imidazo[1,2-a]pyridin-3-yl)-1H-pyrazol-1-yl)-6-morpholinopyrimidin-2-yl)-2-methoxyethan-1-ol] registered an IC50 of 100 to 5000 nM.

Another test deals with T1, PIKFYVE. Put plainly: Cell-based Pikfyve inhibition activity assay (EEA1 staining, mean vesicle size in BJ fibroblast cells). Particulars: Table 4, 4 hours treatment, 3 μM Apilimod = 100% inhibition. Here is the method:
BJ fibroblast cells were obtained from American Type Cell Culture (ATCC, CRL-2522). The cells were maintained in DMEM (Genesee Scientific, 25-500) supplemented with 10% fetal bovine serum (Genesee Scientific, 25-514) and 1% penicillin-streptomycin (Genesee Scientific, 25-512) at 37° C. in the atmosphere 5% CO2. BJ fibroblasts were plated into black flat clear bottom 96-well plates (Grenier, 655090) at a density of 3×10^3 per well and were allowed to attach in culture for 8-10 hours before drug treatment. Drugs were tested at eleven doses separated by 3 fold from 0.03 nM to 3000 nM in triplicates for 4 hours at 37° C. After 4 hours, treatment media was aspirated and replaced with 4% Paraformaldehyde (Electron Microscopy Science, 15714-S) and cells were fixed at room temperature for 5 minutes. 4% PFA in wells were then discarded and replaced with a blocking buffer consisting of 1×PBS with 0.1% Tween (Sigma-Aldrich, P1754-500), 5% Donkey Serum (Jackson ImmunoResearch, 017-000-121), and 1% BSA (Caisson Labs, B005-50GM) and incubated at room temperature for 30 minutes. Blocking buffer was then discarded and replaced with a primary EEA1 antibody (Fisher Scientific, BD610457) in a 1:1000 dilution and incubated at 4° C. overnight. Following overnight incubation, plates were washed with 1×PBS three times and incubated with secondary antibody Donkey anti-Mouse IgG, Alexa Fluor 555 (Invitrogen, A31570) (1:1000 dilution) for 1 hour at room temperature in the dark. Subsequently cell plates were washed with 1×PBS three times and can be stored at 4° C. if not being proceeding with imaging procedure.
Images were acquired with 20× objective (ImageXpress MicroConfocal, Molecular Devices) creating z-series of 5 planes (5 steps, […]), 16 tiles per well. Images were then analyzed using a custom CellProfiler protocol to obtain mean vesicle size. The mean vesicle size from 16 images was used as the output for each well. The mean vesicle size from 0.5% DMSO treated condition was considered as having no Pikfyve inhibition activity and the 3 μM Apilimod treated condition was considered as having 100% inhibition activity. The mean vesicle size was converted to % inhibition activity and the data was fitted to a dose-response curve using log(inhibitor) vs normalized response-variable slope using GraphPad Prism.
`Cc1cccc(-c2ccn(-c3cc(N4CCOCC4)nc(OCC(=O)c4ccccc4)n3)n2)c1` [Compound 169] gave a concentration giving a half-maximal response (EC50) of 100 to 500 nM. The same measure, in the same setting: then `CO[C@@H](CO)c1nc(N2CCOCC2)cc(-n2nc(-c3csc4ccccc34)cc2C)n1` [Compound 279, (R)-2-(4-(3-(benzo[b]thiophen-3-yl)-5-methyl-1H-pyrazol-1-yl)-6-morpholinopyrimidin-2-yl)-2-methoxyethan-1-ol], with 500 to 5000 nM.
